# Reference: US10961200B2, “Small molecule inhibitors of lactate dehydrogenase and methods of use thereof” (THE UNITED STATES OF AMERICA, AS REPRESENTED BY THE …, priority 2014, dated 2021)
# Molecular target: Human LDHA (Homo sapiens (Human), UniProt P00338)
# Test: human LDHA primary biochemical assay (resazurin/diaphorase coupled, fluorescence)
# Settings: LDHA inhibitory activity, activity level based on IC50 (Table 7)
# Source text: Test compounds were placed in a Greiner Bio-One (Monroe, N.C.) 1536-well black solid bottom assay plate. 200 millimolar (mM) Tris HCl, pH 7.4, 100 micromolar […] EDTA and 0.01% TWEEN-20™, final concentration, was used as the assay buffer. The LDHA reagent was 2 nanomolar (nM) Human LDHA (Meridian Life Science, Inc., Memphis, Tenn.), final concentration, in assay buffer.
row,SMILES,IC50
1,"Cc1ccc(-c2nn(-c3nc(C(=O)O)cs3)cc2Cc2ccc(S(N)(=O)=O)cc2)cc1-c1ccncc1 [Compound 490, 2-(3-(4-methyl-3-(pyridin-4-yl)phenyl)-4-(4-sulfamoylbenzyl)-1H-pyrazol-1-yl)thiazole-4-carboxylic acid]",100 to 1000 nM
2,"Cc1ccc(-c2nn(-c3nc(C(=O)O)cs3)cc2Cc2ccc(S(N)(=O)=O)cc2)cc1-c1ccccc1 [Compound 491, 2-(3-(6-methyl-[1,1′-biphenyl]-3-yl)-4-(4-sulfamoylbenzyl)-1H-pyrazol-1-yl)thiazole-4-carboxylic acid]",100 to 1000 nM
3,"Cc1ccc(-c2nn(-c3nc(C(=O)O)cs3)cc2Cc2ccc(S(N)(=O)=O)cc2)cc1-c1ccc(F)c(F)c1 [Compound 492, 2-(3-(3′,4′-difluoro-6-methyl-[1,1′-biphenyl]-3-yl)-4-(4-sulfamoylbenzyl)-1H-pyrazol-1-yl)thiazole-4-carboxylic acid]",100 to 1000 nM
4,"Cc1cc(-c2cc(-c3nn(-c4nc(C(=O)O)cs4)cc3Cc3ccc(S(N)(=O)=O)cc3)ccc2C)ccc1F [Compound 493, 2-(3-(4′-fluoro-3′,6-dimethyl-[1,1′-biphenyl]-3-yl)-4-(4-sulfamoylbenzyl)-1H-pyrazol-1-yl)thiazole-4-carboxylic acid]",100 to 1000 nM
5,"COc1ccc(-c2cc(-c3nn(-c4nc(C(=O)O)cs4)cc3Cc3ccc(S(N)(=O)=O)cc3)ccc2C)cc1F [Compound 494, 2-(3-(3′-fluoro-4′-methoxy-6-methyl-[1,1′-biphenyl]-3-yl)-4-(4-sulfamoylbenzyl)-1H-pyrazol-1-yl)thiazole-4-carboxylic acid]",100 to 1000 nM
6,"Cc1cc(C)cc(-c2cc(-c3nn(-c4nc(C(=O)O)cs4)cc3Cc3ccc(S(N)(=O)=O)cc3)ccc2C)c1 [Compound 495, 2-(4-(4-sulfamoylbenzyl)-3-(3′,5′,6-trimethyl-[1,1′-biphenyl]-3-yl)-1H-pyrazol-1-yl)thiazole-4-carboxylic acid]",100 to 1000 nM
7,"Cc1ccc(-c2cc(-c3nn(-c4nc(C(=O)O)cs4)cc3Cc3ccc(S(N)(=O)=O)cc3)ccc2C)cc1C#N [Compound 496, 2-(3-(3′-cyano-4′,6-dimethyl-[1,1′-biphenyl]-3-yl)-4-(4-sulfamoylbenzyl)-1H-pyrazol-1-yl)thiazole-4-carboxylic acid]",100 to 1000 nM
8,"Cc1ccc(-c2nn(-c3nc(C(=O)O)cs3)cc2Cc2ccc(S(N)(=O)=O)cc2)cc1-c1cccc(F)c1 [Compound 497, 2-(3-(3′-fluoro-6-methyl-[1,1′-biphenyl]-3-yl)-4-(4-sulfamoylbenzyl)-1H-pyrazol-1-yl)thiazole-4-carboxylic acid]",100 to 1000 nM
9,"Cc1ccc(-c2nn(-c3nc(C(=O)O)cs3)cc2Cc2ccc(S(N)(=O)=O)cc2)cc1-c1ccc(F)cc1 [Compound 498, 2-(3-(4′-fluoro-6-methyl-[1,1′-biphenyl]-3-yl)-4-(4-sulfamoylbenzyl)-1H-pyrazol-1-yl)thiazole-4-carboxylic acid]",100 to 1000 nM
10,"CCc1cccc(-c2cc(-c3nn(-c4nc(C(=O)O)cs4)cc3Cc3ccc(S(N)(=O)=O)cc3)ccc2F)c1 [Compound 513, 2-(3-(3′-ethyl-6-fluoro-[1,1′-biphenyl]-3-yl)-4-(4-sulfamoylbenzyl)-1H-pyrazol-1-yl)thiazole-4-carboxylic acid]",100 to 1000 nM
11,"NS(=O)(=O)c1ccc(Cc2cn(-c3nc(C(=O)O)cs3)nc2-c2ccc(F)c(-c3cc(Cl)cc(Cl)c3)c2)cc1 [Compound 514, 2-(3-(3′,5′-dichloro-6-fluoro-[1,1′-biphenyl]-3-yl)-4-(4-sulfamoylbenzyl)-1H-pyrazol-1-yl)thiazole-4-carboxylic acid]",1000 to 57000 nM
12,"Cc1ccc(-c2cc(-c3nn(-c4nc(C(=O)O)cs4)cc3Cc3ccc(S(N)(=O)=O)cc3)ccc2F)cc1C [Compound 516, 2-(3-(6-fluoro-3′,4′-dimethyl-[1,1′-biphenyl]-3-yl)-4-(4-sulfamoylbenzyl)-1H-pyrazol-1-yl)thiazole-4-carboxylic acid]",100 to 1000 nM
13,"NS(=O)(=O)c1ccc(Cc2cn(-c3nc(C(=O)O)cs3)nc2-c2ccc(F)c(-c3ccc(F)c(F)c3)c2)cc1 [Compound 517, 2-(4-(4-sulfamoylbenzyl)-3-(3′,4′,6-trifluoro-[1,1′-biphenyl]-3-yl)-1H-pyrazol-1-yl)thiazole-4-carboxylic acid]",100 to 1000 nM
14,"Cc1ccc(-c2cc(-c3nn(-c4nc(C(=O)O)cs4)cc3Cc3ccc(S(N)(=O)=O)cc3)ccc2F)cc1F [Compound 520, 2-(3-(3′,6-difluoro-4′-methyl-[1,1′-biphenyl]-3-yl)-4-(4-sulfamoylbenzyl)-1H-pyrazol-1-yl)thiazole-4-carboxylic acid]",100 to 1000 nM
15,"NS(=O)(=O)c1ccc(Cc2cn(-c3nc(C(=O)O)cs3)nc2-c2cccc(-c3cccnc3)c2)cc1 [Compound 522, 2-(3-(3-(pyridin-3-yl)phenyl)-4-(4-sulfamoylbenzyl)-1H-pyrazol-1-yl)thiazole-4-carboxylic acid]",100 to 1000 nM
16,"Nc1cccc(-c2cccc(-c3nn(-c4nc(C(=O)O)cs4)cc3Cc3ccc(S(N)(=O)=O)cc3)c2)c1 [Compound 524, 2-(3-(3′-amino-[1,1′-biphenyl]-3-yl)-4-(4-sulfamoylbenzyl)-1H-pyrazol-1-yl)thiazole-4-carboxylic acid]",100 to 1000 nM
17,"NS(=O)(=O)c1ccc(Cc2c(CC3CC3)nn(-c3nc(C(=O)O)cs3)c2-c2cc(F)cc(-c3cccc(F)c3)c2)cc1 [Compound 525, 4-((3-(cyclopropylmethyl)-5-(3′,5-difluoro-[1,1′-biphenyl]-3-yl)-1-(4-((oxo-l3-methyl)-l3-oxidanyl)thiazol-2-yl)-1H-pyrazol-4-yl)methyl)benzenesulfonamide]",1000 to 57000 nM
18,"C=C(C)c1cc(-c2nn(-c3nc(C(=O)O)cs3)c(CC3CC3)c2Cc2ccc(S(N)(=O)=O)c(F)c2)ccc1F [Compound 534, 2-(5-(cyclopropylmethyl)-3-(4-fluoro-3-(prop-1-en-2-yl)phenyl)-4-(3-fluoro-4-sulfamoylbenzyl)-1H-pyrazol-1-yl)thiazole-4-carboxylic acid]",< 100 nM

# More lines, now with the values ahead:
row,IC50,SMILES
1,< 100 nM,"Cc1ccc(-c2nn(-c3nc(C(=O)O)cs3)cc2Cc2ccc(S(N)(=O)=O)cc2)cc1-c1cccc(N)c1 [Compound 487, 2-(3-(3′-amino-6-methyl-[1,1′-biphenyl]-3-yl)-4-(4-sulfamoylbenzyl)-1H-pyrazol-1-yl)thiazole-4-carboxylic acid]"
2,100 to 1000 nM,"CCc1cccc(-c2cc(-c3nn(-c4nc(C(=O)O)cs4)cc3Cc3ccc(S(N)(=O)=O)cc3)ccc2C)c1 [Compound 488, 2-(3-(3′-ethyl-6-methyl-[1,1′-biphenyl]-3-yl)-4-(4-sulfamoylbenzyl)-1H-pyrazol-1-yl)thiazole-4-carboxylic acid]"
3,100 to 1000 nM,"Cc1ccc(-c2nn(-c3nc(C(=O)O)cs3)cc2Cc2ccc(S(N)(=O)=O)cc2)cc1-c1cc(F)cc(F)c1 [Compound 489, 2-(3-(3′,5′-difluoro-6-methyl-[1,1′-biphenyl]-3-yl)-4-(4-sulfamoylbenzyl)-1H-pyrazol-1-yl)thiazole-4-carboxylic acid]"
4,< 100 nM,"Cc1ccc(-c2nn(-c3nc(C(=O)O)cs3)c(C3CC3)c2Cc2ccc(S(N)(=O)=O)cc2)cc1-c1cccnc1 [Compound 499, 2-(5-cyclopropyl-3-(4-methyl-3-(pyridin-3-yl)phenyl)-4-(4-sulfamoylbenzyl)-1H-pyrazol-1-yl)thiazole-4-carboxylic acid]"
5,< 100 nM,"Cc1ccc(-c2nn(-c3nc(C(=O)O)cs3)c(C3CC3)c2Cc2ccc(S(N)(=O)=O)cc2)cc1-c1cccc(N)c1 [Compound 500, 2-(3-(3′-amino-6-methyl-[1,1′-biphenyl]-3-yl)-5-cyclopropyl-4-(4-sulfamoylbenzyl)-1H-pyrazol-1-yl)thiazole-4-carboxylic acid]"
6,< 100 nM,"COc1cc(-c2cc(-c3nn(-c4nc(C(=O)O)cs4)cc3Cc3ccc(S(N)(=O)=O)cc3)ccc2F)ccc1F [Compound 518, 2-(3-(4′,6-difluoro-3′-methoxy-[1,1′-biphenyl]-3-yl)-4-(4-sulfamoylbenzyl)-1H-pyrazol-1-yl)thiazole-4-carboxylic acid]"
7,< 100 nM,"Cc1cccc(-c2cccc(-c3nn(-c4nc(C(=O)O)cs4)cc3Cc3ccc(S(N)(=O)=O)cc3)c2)c1 [Compound 519, 2-(3-(3′-methyl-[1,1′-biphenyl]-3-yl)-4-(4-sulfamoylbenzyl)-1H-pyrazol-1-yl)thiazole-4-carboxylic acid]"
8,< 100 nM,"COc1cccc(-c2cccc(-c3nn(-c4nc(C(=O)O)cs4)cc3Cc3ccc(S(N)(=O)=O)cc3)c2)c1 [Compound 521, 2-(3-(3′-methoxy-[1,1′-biphenyl]-3-yl)-4-(4-sulfamoylbenzyl)-1H-pyrazol-1-yl)thiazole-4-carboxylic acid]"
9,< 100 nM,"CC(C)=Cc1cc(-c2nn(-c3nc(C(=O)O)cs3)c(CC3CC3)c2Cc2ccc(S(N)(=O)=O)c(F)c2)ccc1F [Compound 530, 2-(5-(cyclopropylmethyl)-3-(4-fluoro-3-(2-methylprop-1-en-1-yl)phenyl)-4-(3-fluoro-4-sulfamoylbenzyl)-1H-pyrazol-1-yl)thiazole-4-carboxylic acid]"
10,< 100 nM,"NS(=O)(=O)c1ccc(Cc2c(-c3ccc(F)c(/C=C/C4CC4)c3)nn(-c3nc(C(=O)O)cs3)c2CC2CC2)cc1F [Compound 532, (E)-2-(5-(cyclopropylmethyl)-3-(3-(2-cyclopropylvinyl)-4-fluorophenyl)-4-(3-fluoro-4-sulfamoylbenzyl)-1H-pyrazol-1-yl)thiazole-4-carboxylic acid]"
11,< 100 nM,"C/C=C/c1cc(-c2nn(-c3nc(C(=O)O)cs3)c(CC3CC3)c2Cc2ccc(S(N)(=O)=O)c(F)c2)ccc1F [Compound 533, (E)-2-(5-(cyclopropylmethyl)-3-(4-fluoro-3-(prop-1-en-1-yl)phenyl)-4-(3-fluoro-4-sulfamoylbenzyl)-1H-pyrazol-1-yl)thiazole-4-carboxylic acid]"
